US20220323406A1, “METHODS AND COMPOSITIONS FOR DIFFERENTIATING STEM CELLS” (Massachusetts Institute of Technology, priority 2019, published 2022)

Experiments:
[1] = system: ENR+CD organoids (ISC to Paneth cell differentiation); test: Primary screen: basal (non-stimulated) lysozyme secretion LYZ.NS, 2.5-D 384-well ENR+CD organoid differentiation; format: cell-based, mouse; conditions: primary screen; for Z.LYZ.NS: standard z score
Source text: (§1) High-throughput screening.

[2] = system: ENR+CD organoids; test: Primary screen: ATP (CellTiter-Glo 3D, CTG) cell number/viability, 2.5-D 384-well ENR+CD organoids; conditions: primary screen; for Z.CTG: standard z score;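 as to all read-outs here: compounds given at plating and again on day 3 over a 6-day differentiation from ENR+CV stem-cell-enriched precursors, ATP measured on day 6, plate median as control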
[3] = system: ENR+CD organoids (ISC to Paneth cell differentiation); test: Primary screen: CCh-stimulated lysozyme secretion LYZ.S, 2.5-D 384-well ENR+CD organoid differentiation; format: cell-based, mouse; conditions: primary screen
Source text: as §1

[4] = dose 0.08 uM, FC relative to plate median
[5] = dose 0.40 uM, FC relative to plate median
[6] = dose 2.00 uM, FC relative to plate median
[7] = dose 10.00 uM, FC relative to plate median
[8] = dose 0.08 uM, FC vs plate median
[9] = dose 0.40 uM, FC vs plate median
[10] = dose 2.00 uM, FC vs plate median
[11] = dose 10.00 uM, FC vs plate median

For COc1cc(Br)c(Nc2nc(-c3c(C)nc4ncccn34)cs2)c(Br)c1 [PTC-209], the Dose.FC.LYZ.NS [1, 4] was 0.034 log2 fold change, the Z.LYZ.NS ([1]; dose 0.08 uM) was 0.294 and the Dose.FC.LYZ.NS [1, 5] was −0.058 log2 fold change. It also gave a Z.LYZ.NS ([1]; dose 0.40 uM) of −0.509, a Dose.FC.LYZ.NS [1, 6] of −0.201 log2 fold change and a Z.LYZ.NS ([1]; dose 2.00 uM) of −1.753. It also gave a Dose.FC.LYZ.NS [1, 7] of −0.227 log2 fold change, a Z.LYZ.NS ([1]; dose 10.00 uM) of −1.975 and a Dose.FC.CTG [2, 4] of −0.108 log2 fold change. For the same molecule, the Z.CTG ([2]; dose 0.08 uM) was −0.259, the Dose.FC.CTG [2, 5] was −0.207 log2 fold change and the Z.CTG ([2]; dose 0.40 uM) was −0.495. It also gave a Dose.FC.CTG [2, 6] of −1.422 log2 fold change, a Z.CTG ([2]; dose 2.00 uM) of −3.397 and a Dose.FC.CTG [2, 7] of −1.553 log2 fold change. It also gave a Z.CTG ([2]; dose 10.00 uM) of −3.708, a Dose.FC.LYZ.S [3, 4] of 0.007 log2 fold change and a Dose.FC.LYZ.S [3, 5] of 0.045 log2 fold change. For the same molecule, the Dose.FC.LYZ.S [3, 6] was −0.289 log2 fold change and the Dose.FC.LYZ.S [3, 7] was −0.300 log2 fold change.

O=C(NOCC1CC1)c1ccc(F)c(F)c1Nc1ccc(I)cc1Cl [PD184352 (CI-1040)] gave a Z.LYZ.NS ([1]; dose 0.08 uM) of −0.162, a Z.LYZ.NS ([1]; dose 0.40 uM) of −0.458 and a Z.LYZ.NS ([1]; dose 2.00 uM) of −1.176. For the same molecule, the Z.LYZ.NS ([1]; dose 10.00 uM) was −1.011, the Dose.FC.LYZ.NS [1, 8] was −0.019 log2 fold change and the Dose.FC.LYZ.NS [1, 9] was −0.053 log2 fold change. It also gave a Dose.FC.LYZ.NS [1, 10] of −0.135 log2 fold change, a Dose.FC.LYZ.NS [1, 11] of −0.116 log2 fold change and a Z.CTG ([2]; dose 0.08 uM) of 0.874. The Z.CTG ([2]; dose 0.40 uM) was 0.624, the Z.CTG ([2]; dose 2.00 uM) was −0.506 and the Z.CTG ([2]; dose 10.00 uM) was −1.901. It also gave a Dose.FC.CTG [2, 8] of 0.366 log2 fold change, a Dose.FC.CTG [2, 9] of 0.261 log2 fold change and a Dose.FC.CTG [2, 10] of −0.212 log2 fold change. The Dose.FC.CTG [2, 11] was −0.796 log2 fold change, the Dose.FC.LYZ.S [3, 8] was −0.019 log2 fold change and the Dose.FC.LYZ.S [3, 9] was −0.047 log2 fold change. The Dose.FC.LYZ.S [3, 10] was −0.178 log2 fold change and the Dose.FC.LYZ.S [3, 11] was −0.239 log2 fold change.

For O=C(Oc1cc(S(=O)(=O)c2ccccc2)ccc1[N+](=O)[O-])c1ccc(Cl)cc1 [BTB06584], the Dose.FC.LYZ.NS ([1]; dose 0.08 uM) was 0.091 log2 fold change, the “Z.LYZ.NS (standard z score)” value ([1]; dose 0.08 uM) was 0.795 and the Dose.FC.LYZ.NS ([1]; dose 0.40 uM) was 0.025 log2 fold change. For the same molecule, the “Z.LYZ.NS (standard z score)” value ([1]; dose 0.40 uM) was 0.214, the Dose.FC.LYZ.NS ([1]; dose 2.00 uM) was 0.024 log2 fold change and the “Z.LYZ.NS (standard z score)” value ([1]; dose 2.00 uM) was 0.206. The Dose.FC.LYZ.NS ([1]; dose 10.00 uM) was −0.031 log2 fold change, the “Z.LYZ.NS (standard z score)” value ([1]; dose 10.00 uM) was −0.268 and the Dose.FC.CTG ([2]; dose 0.08 uM) was 0.275 log2 fold change. For the same molecule, the “Z.CTG (standard z score)” value ([2]; dose 0.08 uM) was 0.657, the Dose.FC.CTG ([2]; dose 0.40 uM) was 0.288 log2 fold change and the “Z.CTG (standard z score)” value ([2]; dose 0.40 uM) was 0.688. The Dose.FC.CTG ([2]; dose 2.00 uM) was −0.180 log2 fold change, the “Z.CTG (standard z score)” value ([2]; dose 2.00 uM) was −0.431 and the Dose.FC.CTG ([2]; dose 10.00 uM) was 0.199 log2 fold change. For the same molecule, the “Z.CTG (standard z score)” value ([2]; dose 10.00 uM) was 0.475, the Dose.FC.LYZ.S ([3]; dose 0.08 uM) was 0.222 log2 fold change and the Dose.FC.LYZ.S ([3]; dose 0.40 uM) was 0.042 log2 fold change. For the same molecule, the Dose.FC.LYZ.S ([3]; dose 2.00 uM) was 0.039 log2 fold change and the Dose.FC.LYZ.S ([3]; dose 10.00 uM) was 0.019 log2 fold change.

In the case of CC(C)CCNC(=O)[C@H](CC(C)C)NC(=O)[C@H]1O[C@@H]1C(=O)O [Loxistatin Acid (E-64C)], the “Dose.FC.LYZ.NS (log2 fold change)” value ([1]; dose 0.08 uM) is reported as 0.147, the “Z.LYZ.NS (standard z score)” value ([1]; dose 0.08 uM) is reported as 1.283 and the “Dose.FC.LYZ.NS (log2 fold change)” value ([1]; dose 0.40 uM) is reported as 0.061. For the same molecule, the “Z.LYZ.NS (standard z score)” value ([1]; dose 0.40 uM) was 0.534, the “Dose.FC.LYZ.NS (log2 fold change)” value ([1]; dose 2.00 uM) was 0.055 and the “Z.LYZ.NS (standard z score)” value ([1]; dose 2.00 uM) was 0.482. For the same molecule, the “Dose.FC.LYZ.NS (log2 fold change)” value ([1]; dose 10.00 uM) was 0.004, the “Z.LYZ.NS (standard z score)” value ([1]; dose 10.00 uM) was 0.031 and the “Dose.FC.CTG (log2 fold change)” value ([2]; dose 0.08 uM) was 0.086. For the same molecule, the “Z.CTG (standard z score)” value ([2]; dose 0.08 uM) was 0.206, the “Dose.FC.CTG (log2 fold change)” value ([2]; dose 0.40 uM) was 0.156 and the “Z.CTG (standard z score)” value ([2]; dose 0.40 uM) was 0.373. The “Dose.FC.CTG (log2 fold change)” value ([2]; dose 2.00 uM) was 0.080, the “Z.CTG (standard z score)” value ([2]; dose 2.00 uM) was 0.191 and the “Dose.FC.CTG (log2 fold change)” value ([2]; dose 10.00 uM) was 0.094. For the same molecule, the “Z.CTG (standard z score)” value ([2]; dose 10.00 uM) was 0.224, the “Dose.FC.LYZ.S (log2 fold change)” value ([3]; dose 0.08 uM) was 0.125 and the “Dose.FC.LYZ.S (log2 fold change)” value ([3]; dose 0.40 uM) was 0.105. The “Dose.FC.LYZ.S (log2 fold change)” value ([3]; dose 2.00 uM) was 0.037 and the “Dose.FC.LYZ.S (log2 fold change)” value ([3]; dose 10.00 uM) was 0.021.

With CCOC(=O)N1c2ccc(C(F)(F)F)cc2[C@@H](N(Cc2cc(C(F)(F)F)cc(C(F)(F)F)c2)C(=O)OC)C[C@H]1CC [Torcetrapib] the Dose.FC.LYZ.NS ([1]; dose 0.08 uM) was 0.114 log2 fold change, the “Z.LYZ.NS (standard z score)” value ([1]; dose 0.08 uM) was 0.991 and the Dose.FC.LYZ.NS ([1]; dose 0.40 uM) was −0.063 log2 fold change. The “Z.LYZ.NS (standard z score)” value ([1]; dose 0.40 uM) was −0.546, the Dose.FC.LYZ.NS ([1]; dose 2.00 uM) was −0.136 log2 fold change and the “Z.LYZ.NS (standard z score)” value ([1]; dose 2.00 uM) was −1.185. For the same molecule, the Dose.FC.LYZ.NS ([1]; dose 10.00 uM) was −0.012 log2 fold change, the “Z.LYZ.NS (standard z score)” value ([1]; dose 10.00 uM) was −0.108 and the Dose.FC.CTG ([2]; dose 0.08 uM) was 0.283 log2 fold change. For the same molecule, the Dose.FC.CTG ([2]; dose 0.40 uM) was 0.061 log2 fold change, the Dose.FC.CTG ([2]; dose 2.00 uM) was −0.121 log2 fold change and the Dose.FC.CTG ([2]; dose 10.00 uM) was −0.151 log2 fold change. It also gave a Dose.FC.LYZ.S ([3]; dose 0.08 uM) of 0.320 log2 fold change, a Dose.FC.LYZ.S ([3]; dose 0.40 uM) of 0.045 log2 fold change and a Dose.FC.LYZ.S ([3]; dose 2.00 uM) of −0.098 log2 fold change. The Dose.FC.LYZ.S ([3]; dose 10.00 uM) was −0.056 log2 fold change.
